In general, IC50 refers to the concentration that gives 50% inhibition.

The structures appear in SMILES notation. The source made the active and inactive calls. The calls are words filed in the database; no cut-off is given here.

Type in all cases: functional, cell-based
Assay [1] can be described thus: Antiproliferative activity against chinese hamster R2 cells assessed as inhibition of cell growth incubated for 96 h by CellTiter-Blue cell viability assay. Particulars: Cricetulus griseus, R2, 96 h. A general note: Alamar Blue is a resazurin reagent that responds to reducing activity.
Assay [2] deals with KB. As to the kind of experiment: Antiproliferative activity against human KB cells assessed as inhibition of cell growth upto 1000 nM incubated for 96 hrs in the presence of AICA by CellTiter-Blue cell viability assay.
The test system of assay [3] is KB. Put plainly: Antiproliferative activity against human KB cells assessed as inhibition of cell growth upto 1000 nM incubated for 96 hrs in the presence of adenosine by CellTiter-Blue cell viability assay.
Assay [4] relates to KB. As to the kind of experiment: Antiproliferative activity against human KB cells assessed as inhibition of cell growth upto 1000 nM incubated for 96 hrs in the presence of thymidine by CellTiter-Blue cell viability assay.
The subject of assay [5] is KB. As to the kind of experiment: Antiproliferative activity against human KB cells assessed as inhibition of cell growth upto 1000 nM incubated for 96 hrs in the presence of thymidylate by CellTiter-Blue cell viability assay.
Assay [6] concerns KB. Put plainly: Antiproliferative activity against human KB cells assessed as inhibition of cell growth upto 1000 nM incubated for 96 hrs in the presence of glycine by CellTiter-Blue cell viability assay.

Consider `Nc1nc2[nH]cc(CCc3ccc(C(=O)N[C@@H](CCC(=O)O)C(=O)O)s3)c2c(=O)[nH]1`, for which the IC50 in assay [1] is over 1 µM.
For `Cc1[nH]c2nc(N)[nH]c(=O)c2c1CCc1ccc(C(=O)N[C@@H](CCC(=O)O)C(=O)O)cc1`, the IC50 in assay [1] was over 1 µM. Besides, the outcome in assay [2] and in assay [3] was inactive.
For the molecule `Nc1nc2[nH]cc(CCc3ccc(C(=O)N[C@@H](CCC(=O)O)C(=O)O)c(F)c3)c2c(=O)[nH]1`, the result in assay [4], in assay [2] and in assay [3] was inactive. The result in assay [5] was Active. Further, the IC50 in assay [1] is over 1 µM.
For `Nc1nc2[nH]cc(CCc3ccc(C(=O)N[C@@H](CCC(=O)O)C(=O)O)cc3)c2c(=O)[nH]1` [PEMETREXED], the result in assay [4], in assay [2] and in assay [3] was inactive. In addition, the outcome in assay [5] was Active. Also, the IC50 in assay [1] is over 1 µM.
As to `Cc1[nH]c2nc(N)[nH]c(=O)c2c1CCCc1ccc(C(=O)N[C@@H](CCC(=O)O)C(=O)O)cc1`, the IC50 in assay [1] is over 1 µM. Besides, the result in assay [2] and in assay [3] was inactive.
With `Nc1nc2[nH]cc(CCCc3ccc(C(=O)N[C@@H](CCC(=O)O)C(=O)O)cc3)c2c(=O)[nH]1`, the outcome in assay [4], in assay [2], in assay [3] and in assay [6] was inactive. Moreover, in assay [5], the result was Active. In addition, the 50% inhibitory concentration (IC50) in assay [1] was over 1 µM.
For the molecule `Cc1[nH]c2nc(N)[nH]c(=O)c2c1CCc1ccc(C(=O)N[C@@H](CCC(=O)O)C(=O)O)c(F)c1`, in assay [1], the IC50 is over 1 µM. For the same molecule, the outcome in assay [2] and in assay [3] was inactive.
Turning to `Cc1[nH]c2nc(N)[nH]c(=O)c2c1CCc1ccc(C(=O)N[C@@H](CCC(=O)O)C(=O)O)s1`, in assay [1], the IC50 is over 1 µM. Moreover, the outcome in assay [2] and in assay [3] was inactive.

The values above are taken from ChEMBL document CHEMBL5390312, “Discovery of Tumor-Targeted 6-Methyl Substituted Pemetrexed and Related Antifolates with Selective Loss of RFC Transport” (ACS Med Chem Lett, 2023).
